# Measurements published in patent US20200080053A1, “USE OF PEPTIDE COMPOUNDS FOR PROMOTING SURVIVAL, GROWTH AND CELL DIFFERENTIATION” (Axoltis Pharma, priority 2016, published 2020).
# Assays:
# Assay type in all cases: cell-based
# [1] = test system: human mesenchymal stem cells (hMSC); test: Cell proliferation of hMSCs depending on the culture conditions; settings: whatever the conditions / FBS concentration (2% or 10% FBS)
# From the text: Adult human bone marrow mononuclear cells Ficoll-extracted from two donors were obtained from Lonza. Cells were passaged once a week. The human mesenchymal stem cells (hMSC) were selected by plastic adherence and expanded by plating 50 000 cells/cm^2 in Modified Eagle Medium Alpha (MEMalpha, MacoPharma) supplemented with 10% Fetal Bovine Serum (FBS, PAA Laboratoires) and 0.1% Penicilline/Streptomycine (P/S, Lonza). The culture medium was changed after 3 days and then every day. After 2 to 5 weeks of culture at 37° C. in a humid environment and under 5% CO2, hMSC were harvested by trypsinization. The phenotype was confirmed by FACS analysis (BD Bioscience, BD LSR II) with CD73, CD90 and CD105 (positive), as well as CD34 and CD45 (negative) (Table 1).
# (§1) To investigate the neural differentiation capacity of the peptides, 25 cm^2 flasks and 12-wells culture plates were coated with sterile aqueous solutions of either NX210 or NS640 at a concentration of 80 μg/cm^2. Coatings were carried out at 37° C. and 5% CO2 over-night prior to cell plating.
# On Day 0 (D0), hMSC were seeded at a concentration of 3,000 cells/cm^2 in pre-coated 25 cm^2 flasks or 12-well culture plates in complete medium and culture was placed at 37° C. in a humid environment and under 5% CO2. After 24h, medium was changed and replaced by different combinations of media containing either: MEMalpha—bFGF 12.5 ng/mL—FBS 2%—P/S 0.1%; MEMalpha—bFGF 12.5 ng/mL—FBS 10%—P/S 0.1%; MEMalpha—FBS 2%—P/S 0.1% (control condition); MEMalpha—FBS 10%—P/S 0.1% (control condition). The cells were placed at 37° C. in a humid environment and under 5% CO2, and medium was changed twice a week. […] thus was changed with: MEMalpha—ATRA […]—FBS 2%—P/S 0.1%; MEMalpha—ATRA 20 μM—FBS 10%—P/S 0.1%; MEMalpha—FBS 2%—P/S 0.1% (control condition); MEMalpha—FBS 10%—P/S 0.1% (control condition). The cells were placed at 37° C. in a humid environment and under 5% CO2. Medium was changed twice a week. On Day 15 (D15), cells were harvested by trypsinization for mRNA extraction or fixed immunocytochemical analysis.
# [2] = test system: ESCs / neuroepithelial progenitors; test: Selection of neuroepithelial progenitors from ESC embryoid bodies, Nestin immunostaining
# Description: For these experiments, the differentiation of ESCs was preferably orientated to the neuronal differentiation pathway, according to the protocol adapted from Okabe et al., (Mechanisms of Development, 59:89-102, 1996).
# In brief, to start the differentiation, the ESCs were grown on gelatin without LIF for two days. The cells were carefullly trypsinated to collect small ESC aggregates. Then, these aggregates were transferred on a Petri dish without any coating to produce non-adherent spherical cell bodies, namely the embryoid bodies (EB).
# After 5 days of culture, the EB were transferred onto a new Petri dish covered with gelatin to enable cell adhesion.
# After 24h of culture, the culture medium with fetal bovine serum 10% was replaced by a culture medium serum free to select neuroepithelial progenitors and the peptide NX210 (SEQ ID NO: 6) was added in the culture medium at a concentration of 0.5 mg/ml.
# After 6 days of culture, the maximal content of cells expressing the nestin protein (a cytoskeletal protein specific of the neuroepithelial progenitors) was reached.
# The cell population enriched for neuroepithelial progenitors was then trypsinated and seeded at a concentration of 1×10^5 cells/cm^2 on a substrate made up of a polyornithine and laminin mix. […]
# [3] = test system: human mesenchymal stem cells (hMSC); test: Neural differentiation of hMSCs: immunocytochemical analysis (Nestin, MAP-2); settings: bFGF
# Description: as §1
# On Day 0 (D0), hMSC were seeded at a concentration of 3,000 cells/cm^2 in pre-coated 25 cm^2 flasks or 12-well culture plates in complete medium and culture was placed at 37° C. in a humid environment and under 5% CO2. After 24h, medium was changed and replaced by different combinations of media containing either: MEMalpha—bFGF 12.5 ng/mL—FBS 2%—P/S 0.1%; MEMalpha—bFGF 12.5 ng/mL—FBS 10%—P/S 0.1%; MEMalpha—FBS 2%—P/S 0.1% (control condition); MEMalpha—FBS 10%—P/S 0.1% (control condition). The cells were placed at 37° C. in a humid environment and under 5% CO2, and medium was changed twice a week. On Day 8, medium was replaced by medium containing ATRA in the place of bFGF and thus was changed with: MEMalpha—ATRA […]—FBS 2%—P/S 0.1%; MEMalpha—ATRA 20 μM—FBS 10%—P/S 0.1%; MEMalpha—FBS 2%—P/S 0.1% (control condition); MEMalpha—FBS 10%—P/S 0.1% (control condition). The cells were placed at 37° C. in a humid environment and under 5% CO2. Medium was changed twice a week. On Day 15 (D15), cells were harvested by trypsinization for mRNA extraction or fixed immunocytochemical analysis.
# Assessment of differentiation was performed by gene expression after extraction of mRNA at various time point (DO, D1, D8 and D15), and immunocytochemical analysis performed at the end of the culture period (D15).
# Immunocytochemical analyses were carried out on cells fixed in 4% paraformaldehyde and using standard protocols. After blocking with Triton 1×0.1%/BSA 5% during 30 min, cells were incubated with antibodies directed against Nestin (Millipore) or MAP-2 (Sigma) overnight at +4° C. After washing, appropriate FITC or Cyandidine-5 labelled secondary antibody are added. Nuclei were counterstained with Hoescht 33258 (Sigma). Obervations were performed using Leica TCS LSI system.
# [4] = 2% FBS, with or without peptide coating (FIG. 8)
substance,measurement,setting,value
W-S-G-W-S-S-C-S-R-S-C-G (WSGWSSCSRSCG) [NX210],effect on cell proliferation (number of MSCs),[1],no effect
same,cells expressing the Nestin protein (neuronal precursors),"[2]; 0.5 mg/ml NX210 in serum free medium, then 2 days with FGF2, compared to untreated culture",More cells expressing the Nestin protein
same,response to the specific stimulation by FGF2,[2]; during selection of the neuroepithelial progenitors,promotes a more efficient response
same,MAP-2 marker expression (immunocytochemistry staining),[3]; [4],stronger staining
same,Nestine marker expression (immunocytochemistry staining),[3]; [4],stronger staining
same,MAP-2 protein presence,"[3]; 10% FBS, peptide coating (FIG. 8)",makes possible to observe MAP-2 protein presence
same,Nestine expression (staining intensity),"[3]; 10% FBS, with or without peptide coating, compared to the control condition (FIG. 8)",maximized
